Laboratory results published in US8288435B2, “2-aza-bicyclo[3.1.0]hexane derivatives as orexin receptor antagonists” (Actelion Pharmaceuticals Ltd., priority 2006, dated 2012).
pIC50: −log10 of the molar value.

How the values were obtained:
human orexin-1 receptor = biological target: T1, human orexin-1 receptor (Homo sapiens, UniProt O43613); assay: Intracellular calcium measurements (FLIPR), orexin receptor antagonistic activity, OX1; type: cell-based; conditions: CHO cells expressing the human orexin-1 receptor, 10 nM orexin-A as agonist
T1 construct: expressed in transfected cells; host or cells: CHO (Chinese hamster ovary) cells, G418 selection
T1 sequence (O43613 1-425): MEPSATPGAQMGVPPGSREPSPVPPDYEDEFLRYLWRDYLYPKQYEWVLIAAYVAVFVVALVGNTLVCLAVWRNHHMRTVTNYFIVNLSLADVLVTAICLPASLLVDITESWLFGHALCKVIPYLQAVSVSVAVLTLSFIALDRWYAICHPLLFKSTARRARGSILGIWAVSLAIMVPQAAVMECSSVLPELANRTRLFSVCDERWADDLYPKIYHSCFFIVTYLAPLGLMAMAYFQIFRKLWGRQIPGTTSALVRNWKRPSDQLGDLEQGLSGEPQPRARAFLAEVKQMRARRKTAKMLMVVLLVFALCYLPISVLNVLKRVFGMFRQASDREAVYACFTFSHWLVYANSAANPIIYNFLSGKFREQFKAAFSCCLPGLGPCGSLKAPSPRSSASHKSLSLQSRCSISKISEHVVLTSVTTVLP
Experimental: (§1) The orexin receptor antagonistic activity of the compounds of formula (I) is determined in accordance with the following experimental method.
(§2) Intracellular Calcium Measurements:
(§3) Chinese hamster ovary (CHO) cells expressing the human orexin-1 receptor and the human orexin-2 receptor, respectively, are grown in culture medium (Ham F-12 with L-Glutamine) containing 300 μg/ml G418, 100 U/ml penicillin, 100 μg/ml streptomycin and 10% inactivated fetal calf serum (FCS). The cells are seeded at 80′000 cells/well into 96-well black clear bottom sterile plates (Costar) which have been precoated with 1% gelatine in Hanks' Balanced Salt Solution (HBSS). All reagents are from Gibco BRL. The seeded plates are incubated overnight at 37° C. in 5% CO2.
(§4) Human orexin-A as an agonist is prepared as 1 mM stock solution in MeOH:water (1:1), diluted in HBSS containing 0.1% bovine serum albumin (BSA) and 2 mM HEPES for use in the assay at a final concentration of 10 nM.
(§5) Antagonists are prepared as 10 mM stock solution in DMSO, then diluted in 96-well plates, first in DMSO, then in HBSS containing 0.1% bovine serum albumin (BSA) and 2 mM HEPES.
(§6) On the day of the assay, 100 μl of loading medium (HBSS containing 1% FCS, 2 mM HEPES, 5 mM probenecid (Sigma) and 3 μM of the fluorescent calcium indicator fluo-3 AM (1 mM stock solution in DMSO with 10% pluronic acid) (Molecular Probes) is added to each well.
(§7) The 96-well plates are incubated for 60 min at 37° C. in 5% CO2. The loading solution is then aspirated and cells are washed 3 times with 200 μl HBSS containing 2.5 mM probenecid, 0.1% BSA, 2 mM HEPES. 100 μl of that same buffer is left in each well.
(§8) Within the Fluorescent Imaging Plate Reader (FLIPR, Molecular Devices), antagonists are added to the plate in a volume of 50 μl, incubated for 20 min and finally 100 μl of agonist is added. Fluorescence is measured for each well at 1 second intervals, and the height of each fluorescence peak is compared to the height of the fluorescence peak induced by 10 nM orexin-A with buffer in place of antagonist. For each antagonist, IC50 value (the concentration of compound needed to inhibit 50% of the agonistic response) is determined.

human orexin-2 receptor = biological target: T2, human orexin-2 receptor (Homo sapiens, UniProt O43614); assay: Intracellular calcium measurements (FLIPR), orexin receptor antagonistic activity, OX2; type: cell-based; conditions: CHO cells expressing the human orexin-2 receptor, 10 nM orexin-A as agonist
T2 construct: expressed in transfected cells; host or cells: CHO (Chinese hamster ovary) cells, G418 selection
T2 sequence (O43614 1-444): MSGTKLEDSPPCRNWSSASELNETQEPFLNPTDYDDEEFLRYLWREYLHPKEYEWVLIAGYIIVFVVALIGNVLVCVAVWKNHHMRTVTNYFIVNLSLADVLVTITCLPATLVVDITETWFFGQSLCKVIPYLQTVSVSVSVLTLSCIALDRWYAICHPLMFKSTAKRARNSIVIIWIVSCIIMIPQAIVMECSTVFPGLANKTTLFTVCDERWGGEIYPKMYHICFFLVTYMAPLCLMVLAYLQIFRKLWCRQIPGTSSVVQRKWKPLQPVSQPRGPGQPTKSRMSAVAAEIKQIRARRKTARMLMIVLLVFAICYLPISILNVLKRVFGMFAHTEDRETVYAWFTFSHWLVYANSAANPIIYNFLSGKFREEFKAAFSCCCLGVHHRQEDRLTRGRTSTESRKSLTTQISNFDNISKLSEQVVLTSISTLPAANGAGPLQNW
Experimental: as §1, §2, §3, §4, §5, §6, §7, §8

O=C(NC[C@@H]1C[C@@H]2C[C@@H]2N1C(=O)c1ncsc1-c1cccc(Cl)c1)c1cccc2c1CCO2 [Example 212, 2,3-Dihydro-benzofuran-4-carboxylic acid {(1S,3S,5S)-2-[5-(3-chloro-phenyl)-thiazole-4-carbonyl]-2-aza-bicyclo[3.1.0]hex-3-ylmethyl}-amide]
pIC50 (human orexin-1 receptor): 6.96
pIC50 (human orexin-2 receptor): 6.99

Cc1nc(C(=O)N2[C@H](CNC(=O)c3cccc4cccnc34)C[C@@H]3C[C@@H]32)c(-c2ccccc2)s1 [Example 230, Quinoline-8-carboxylic acid [(1S,3S,5S)-2-(2-methyl-5-phenyl-thiazole-4-carbonyl)-2-aza-bicyclo[3.1.0]hex-3-ylmethyl]-amide]
pIC50 (human orexin-1 receptor): 7.89
pIC50 (human orexin-2 receptor): 7.00

O=C(NC[C@@H]1C[C@@H]2C[C@@H]2N1C(=O)c1ncsc1-c1cccc(Cl)c1)c1cccc2cccnc12 [Example 235, Quinoline-8-carboxylic acid {(1S,3S,5S)-2-[5-(3-chloro-phenyl)-thiazole-4-carbonyl]-2-aza-bicyclo[3.1.0]hex-3-ylmethyl}-amide]
pIC50 (human orexin-1 receptor): 7.06
pIC50 (human orexin-2 receptor): 6.34

Cc1nc2sccn2c1C(=O)NC[C@@H]1C[C@@H]2C[C@@H]2N1C(=O)c1nc(N(C)C)sc1-c1ccccc1 [Example 246, 6-Methyl-imidazo[2,1-b]thiazole-5-carboxylic acid [(1S,3S,5S)-2-(2-dimethylamino-5-phenyl-thiazole-4-carbonyl)-2-aza-bicyclo[3.1.0]hex-3-ylmethyl]-amide]
pIC50 (human orexin-1 receptor): 7.70
pIC50 (human orexin-2 receptor): 7.36

Cc1cc(C)cc(-c2sc(C)nc2C(=O)N2[C@H](CNc3ncc(Br)cn3)C[C@@H]3C[C@@H]32)c1 [Example 255, {(1S,3S,5S)-3-[(5-Bromo-pyrimidin-2-ylamino)-methyl]-2-aza-bicyclo[3.1.0]hex-2-yl}-[5-(3,5-dimethyl-phenyl)-2-methyl-thiazol-4-yl]-methanone]
pIC50 (human orexin-1 receptor): 7.43
pIC50 (human orexin-2 receptor): 6.54

Cc1nc(C(=O)N2[C@H](CNc3ncc(Br)cn3)C[C@@H]3C[C@@H]32)c(-c2ccc(F)c(F)c2)s1 [Example 259, {(1S,3S,5S)-3-[(5-Bromo-pyrimidin-2-ylamino)-methyl]-2-aza-bicyclo[3.1.0]hex-2-yl}-[5-(3,4-difluoro-phenyl)-2-methyl-thiazol-4-yl]-methanone]
pIC50 (human orexin-1 receptor): 7.21
pIC50 (human orexin-2 receptor): 6.84

O=C(c1nc(C2CC2)sc1-c1ccccc1)N1[C@H](CNc2ncc(Br)cn2)C[C@@H]2C[C@@H]21 [Example 265, {(1S,3S,5S)-3-[(5-Bromo-pyrimidin-2-ylamino)-methyl]-2-aza-bicyclo[3.1.0]hex-2-yl}-(2-cyclopropyl-5-phenyl-thiazol-4-yl)-methanone]
pIC50 (human orexin-1 receptor): 6.88
pIC50 (human orexin-2 receptor): 7.17

Cc1cccc(-c2sc(C)nc2C(=O)N2[C@H](CNc3nccc(C(F)(F)F)n3)C[C@@H]3C[C@@H]32)c1 [Example 274, (2-Methyl-5-m-tolyl-thiazol-4-yl)-{(1S,3S,5S)-3-[(4-trifluoromethyl-pyrimidin-2-ylamino)-methyl]-2-aza-bicyclo[3.1.0]hex-2-yl}-methanone]
pIC50 (human orexin-1 receptor): 6.96
pIC50 (human orexin-2 receptor): 7.01

CCc1cnc(NC[C@@H]2C[C@@H]3C[C@@H]3N2C(=O)c2nc(C)sc2-c2cccc(C)c2)nc1 [Example 277, {(1S,3S,5S)-3-[(5-Ethyl-pyrimidin-2-ylamino)-methyl]-2-aza-bicyclo[3.1.0]hex-2-yl}-(2-methyl-5-m-tolyl-thiazol-4-yl)-methanone]
pIC50 (human orexin-1 receptor): 7.38
pIC50 (human orexin-2 receptor): 6.81
